The values below come from patent US10406126B2, “ALDH2 activator” (Eisai R&D Management Co., Ltd., priority 2018, dated 2019).

The target in data set [1] is T1, aldehyde dehydrogenase 2 (ALDH2) (Homo sapiens, UniProt P05091).
T1 construct: purchased ATGen Inc
T1 sequence (P05091 18-517): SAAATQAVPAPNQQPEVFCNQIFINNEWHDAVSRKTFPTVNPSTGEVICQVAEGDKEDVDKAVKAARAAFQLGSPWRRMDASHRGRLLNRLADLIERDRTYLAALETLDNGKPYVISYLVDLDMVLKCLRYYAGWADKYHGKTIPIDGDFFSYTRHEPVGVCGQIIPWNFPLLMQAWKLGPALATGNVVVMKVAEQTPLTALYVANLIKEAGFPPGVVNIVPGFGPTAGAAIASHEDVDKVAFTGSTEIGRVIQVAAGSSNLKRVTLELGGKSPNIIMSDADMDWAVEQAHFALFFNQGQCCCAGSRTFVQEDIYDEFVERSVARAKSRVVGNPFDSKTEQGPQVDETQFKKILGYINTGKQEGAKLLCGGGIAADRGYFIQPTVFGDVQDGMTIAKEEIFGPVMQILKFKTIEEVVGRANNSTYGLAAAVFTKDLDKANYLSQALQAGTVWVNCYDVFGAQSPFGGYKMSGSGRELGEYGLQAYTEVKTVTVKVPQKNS
As to the kind of experiment: Effects of compounds on the acetaldehyde oxidation rate by ALDH2 (PicoProbe Aldehyde dehydrogenase Activity Assay Kit). As to conditions: read-out: acetaldehyde oxidation rate (rate in the absence of the compounds = 100); for activity at 1 µM: compound concentration 1 μM; for activity at 10 µM: compound concentration 10 μM. The data set is classed as biochemical. The method, then: (Effects of Compounds on the Acetaldehyde Oxidation Rate by Aldehyde Dehydrogenase 2 (ALDH2))
Effects of compounds on the acetaldehyde oxidation rate by aldehyde dehydrogenase 2 (ALDH2) were evaluated using a method known in the art. Specifically, the test was performed using a commercially available kit, PicoProbe™ Aldehyde dehydrogenase Activity Assay Kit (from BioVision Inc.) in accordance with the product's instruction. Reagents as described below were sequentially added to each well in a 384-well plate with a pipette.
1. 10 μL of the commercially available ALDH2 enzyme (from ATGen Inc.) dissolved in ALDH assay Buffer so as to obtain a concentration of 1 μg/mL.
2. 10 μL, of 30 μM or 3 μM compound solution (containing 3% DMSO) prepared with ALDH assay Buffer
3. […] of Reaction mix consisting of 7.82 μL of ALDH assay Buffer, 0.55 μL of PicoProbe, 0.27 μL of Substrate Mix, and 1.36 μL of Acetaldehyde
Before addition of 3, the plate was incubated at room temperature for 5 minutes. After addition of 3, fluorescence was determined using EnVision 2101 Multilabel Reader (from PerkinElmer Inc.) at room, temperature over 60 minutes. The measurements were taken at interval of 2 minutes.
Fluorescence was detected at an excitation wavelength of 535 nm and an emission wavelength of587 nm.
Table 1 lists the oxidation rates when the compounds are added, in which the rates are calculated on the basis of the assumption that the acetaldehyde oxidation rates in the absence of the compounds are 100. The rate for Comparative Example 1 compound was normalized to a value of “175” for 10 μM of the compound concentration while the rate for Comparative Example 1 compound was normalized to a value of “137” for 1 μM of the compound concentration.

How the values of data set [2] were obtained: (Comparison of Amounts of Produced Reactive Metabolites)
Ability of compounds to produce reactive metabolites was evaluated, using the method as described below. Cytochrome P450 (CYP) dependent metabolism was initiated, by adding 1 mg/mL human liver microsome, 0.2 mmol/L compound, and 0.1 mmol/L RI-labeled capture agent, and lastly 1 mmol/L NADPH to 100 mM phosphate buffer (pH 7.4). After incubation at 37° C. for 60 minutes, the reaction mixture (0.1 mL) and an equal volume of acetonitrile were added to stop the metabolic reaction. After 0.8 mL of water was added to the supernatant from centrifugation, 0.5 mL of the resulting solution was injected into HPLC connected to a radio detector and a covalent complex between the reactive metabolite and Relabeled capture agent was quantitatively analyzed for its RI intensity.

The subject of data set [3] is mechanical allodynia induced by carrageenan in C57 BL/6J mice. Put plainly: Suppressive effect of pain induced by carrageenan (von Frey withdrawal score). As to conditions: mean ± S.E. The data set is classed as in vivo, mouse. The method, then: (Suppressive Effect of Pain Induced by Carrageenan)
This experiment was earned out with reference to Science Translational Medicine 6, 251 r118 (2014). Male C57 BL/6J mice (Charles River Japan) of 7-week-old were used. Carrageenan was subcutaneously administered to the mouse by intraplantar injection of the left hind paw to induce mechanical allodynia in the footpad. Mechanical stimulus-evoked withdrawal response at 180 min after the induction was assessed by applying a von Frey filament (ascending bending force 0.16 g) to the footpad, of the hind paw. The filament was perpendicularly applied to the footpad so that the filament was bent for 6 second. The withdrawal response was scored in three stages (0: no response or startle response (moving paw without lifting); 1: lifting of paw; 2: licking or shaking of paw). The mouse was stimulated ten times and the sum of the scores of the ten stimulation (withdrawal score) was calculated.
The compound of Example 1 was dissolved in DMSO/5% glucose solution for injection (1:1 by volume ratio). […]
Wilcoxon rank sum test was used to compare the vehicle-treated group and the Example 1-treated group. The significance level was calculated as 5%, divided into less than 5% (p<0.05) and less than 1% (p<0.01). […]

For `O=C(NCc1ccc2c(c1)OCCO2)c1c(Cl)cccc1Cl` [Comparative Example 2, 2,6-dichloro-N-[(2,3-dihydro-1,4-benzodioxin-6-yl)methyl]benzamide, reference compound], in data set [1], the activity at 1 µM stood at 125% and the activity at 10 µM came out at 164%.

For the compound `COCc1ccc(CNC(=O)c2c(Cl)cccc2C(C)C)cc1F` [Example 12, 2-Chloro-N-[3-fluoro-4-(methoxymethyl)benzyl]-6-isopropylbenzamide], in data set [1], the activity at 1 µM was found to be 136% and the activity at 10 µM worked out at 175%.

For `COCc1ccc(CNC(=O)c2c(Cl)cccc2Br)cc1F` [Example 5, 2-Bromo-6-chloro-N-{[3-fluoro-4-(methoxymethyl)phenyl]methyl}benzamide], in data set [1], the activity at 1 µM was determined as 129% and the activity at 10 µM turned out to be 168%.

On to `COCc1ccc(CNC(=O)c2ccccc2Br)cc1F` [Example 7, 2-Bromo-N-{[3-fluoro-4-(methoxymethyl)phenyl]methyl}benzamide], for which, in data set [1], the activity at 1 µM amounted to 119% and the activity at 10 µM was determined as 156%.

As for `COCc1ccc(CNC(=O)c2c(F)cccc2F)cc1F` [Example 13, 2,6-Difluoro-N-{[3-fluoro-4-(methoxymethyl)phenyl]methyl}benzamide], in data set [1], the activity at 1 µM amounted to 114% and the activity at 10 µM was found to be 143%.

Regarding `COCc1ccc(CNC(=O)c2ccccc2Cl)cc1F` [Example 6, 2-Chloro-N-{[3-fluoro-4-(methoxymethyl)phenyl]methyl}benzamide], in data set [1], the activity at 1 µM was determined as 108% and the activity at 10 µM came to 148%.

For the compound `COCc1ccc(CNC(=O)c2c(Cl)cccc2Cl)cc1` [Example 3, 2,6-Dichloro-N-[4-(methoxymethyl)benzyl]benzamide], in data set [1], the activity at 1 µM was found to be 117% and the activity at 10 µM was determined as 156%.

As to `COCc1ccc(CNC(=O)c2c(F)cccc2Br)cc1F` [Example 8, 2-Bromo-6-fluoro-N-{[3-fluoro-4-(methoxymethyl)phenyl]methyl}benzamide], in data set [1], the activity at 1 µM stood at 128% and the activity at 10 µM was found to be 165%.

Consider `COCc1ccc(CNC(=O)c2c(F)cccc2Cl)cc1F` [Example 10, 2-Chloro-6-fluoro-N-{[3-fluoro-4-(methoxymethyl)phenyl]methyl}benzamide], for which, in data set [1], the activity at 1 µM amounted to 125% and the activity at 10 µM was 168%.

Turning to `O=C(NCc1ccc2c(c1)OCO2)c1c(Cl)cccc1Cl` [Comparative Example 1, N-[(2H-1,3-Benzodioxol-5-yl)methyl]-2,6-dichlorobenzamide, reference compound], in data set [1], the activity at 1 µM was 137% and the activity at 10 µM stood at 175%. The “amount of reactive metabolites produced, in words” value in data set [2] is given as “produces reactive metabolites as much as clozapine”.

For the compound `COCc1ccc(CNC(=O)c2c(C)cccc2C)cc1F` [Example 11, N-{[3-Fluoro-4-(methoxymethyl)phenyl]methyl}-2,6-dimethylbenzamide], in data set [1], the activity at 1 µM was found to be 117% and the activity at 10 µM was found to be 156%.

Turning to `COCc1ccc(CNC(=O)c2c(Cl)cccc2Cl)cc1F` [Example 1, 2,6-Dichloro-N-{[3-fluoro-4-(methoxymethyl)phenyl]methyl}benzamide], in data set [1], the activity at 1 µM was found to be 138% and the activity at 10 µM was 179%. For the same compound, the “Total pain-related score (withdrawal score)” value in data set [3] (180 min after carrageenan induction, 12 mg/kg s.c. three times, **p < 0.01 vs vehicle) was 6.8 ± 1.0**. Also, in data set [3] (Pre: before carrageenan induction), the “Total pain-related score (withdrawal score)” value came to 1.6 ± 0.2.

For the compound `COCc1cc(F)c(CNC(=O)c2c(Cl)cccc2Cl)cc1F` [Example 2, 2,6-Dichloro-N-{[3,6-difluoro-4-(methoxymethyl)phenyl]methyl}benzamide], in data set [1], the activity at 1 µM turned out to be 125% and the activity at 10 µM is 168%.

With `COCc1ccc(CNC(=O)c2c(Cl)cccc2Cl)cc1C` [Example 4, 2,6-Dichloro-N-{[4-(methoxymethyl)-3-methylphenyl]methyl}benzamide], in data set [1], the activity at 1 µM is 136% and the activity at 10 µM came to 175%.
